The assay has as its system THP-1 cells. Put plainly: Human monocytic THP-1 cell differentiation assay for soluble proteins (THP soluble protein assay). The assay is classed as cell-based. The settings on record: LPS-stimulated THP-1 cells. An excerpt: Mitogenic stimulation of THP-1 cells cause differentiation into macrophage like cells with concomitant secretion of tumor necrosis factor (TNF-α) and TNF receptor (TNF-R p75/80 and TNF-R p55/60) and Interleukin-8 (IL-8), among other proteins. In addition, non-stimulated THP-1 cells shed both the p75/80 and the p55/60 receptors over time. The release of membrane bound TNF-α and possibly TNF-R p75/80 and TNF-R p55/60, but not IL-8, is mediated by an enzyme called TNF-α converting enzyme or TACE.
THP-1 cells (from ATCC) are a human monocytic cell line which were obtained from the peripheral blood of a person with acute monocytic leukemia. […]
To perform an assay, the THP-1 cells are co-incubated in a 24 well plate with […] of a 24 mg/ml stock of Lipopolysacharide (LPS) (Calbiochem Lot# B13189) at 37°C in 5% CO2 at a concentration of 1.091 x 10^6 cells/ml (1.1 ml/well) for a total of 24 hours. […] Compounds can be evaluated for their effect on basal (non-stimulated) shedding of the receptors by replacing the LPS with […] of THP-1 media. […]
In addition, at the 24 hours timepoint, and the cells for each treatment group are collected by resuspension in 500 µl/well of THP-1 media and transferred into a FACS tube. […] The samples are run on a Becton Dickinson FaxCaliber FLOW cytometry machine and the amount of dye taken up by each cell is measured in the high red wavelength (FL3). […]

The values below come from patent EP1147102B1, “HETEROARYL ACETYLENIC SULFONAMIDE AND PHOSPHINIC ACID AMIDE HYDROXAMIC ACID TACE INHIBITORS” (Wyeth Holdings Corporation, priority 1999, dated 2000).

By inhibition is commonly meant the change of the read-out against control, counted positive when it falls. Read a high inhibition as a response far below the control.

Consider `CC#CCOc1ccc(S(=O)(=O)N(C)c2c(C(=O)NO)cc(OC)nc2OC)cc1` [Example 33, 3-[Methyl-(4-but-2-ynyloxy-benzenesulfonyl)-amino]-N-hydroxy-2,6-dimethoxyisonicotinamide], for which the inhibition at 3 µM was found to be 31%.
